Like-named read-outs stand apart in the source and are kept apart here.
Target: SAE (Homo sapiens (Human), UniProt Q9UBT2)
Experiment: In vitro inhibitory activity assay against SAE (SUMO-2/3 immunofluorescence in HCT116 cells)
Format: cell-based
Settings: 6 h incubation, read-out: SUMO IF IC50
Experimental: HCT116 cells were seeded into a 96-well black transparent bottom plate at about 20000/well with 90 μL per well. The cells were incubated at 37° C. overnight for 24 h. The test compounds were 10-fold diluted to give a final concentration, and 10 μL of the diluted compounds was added to each well of the cell culture plate. The mixture was incubated at 37° C. for 6 h. The cells were then washed gently, the culture medium was discarded, and the cells were washed once with 200 μL of 0.1% o PBST. 50 μL of 4% PFA was added to each well, and the cells were immobilized at room temperature for 20 min, and then washed with PBS 2-3 times. 50 μL of 0.2% o Triton X-100 was added to each well, and the cells were left to stand at room temperature for 15 min and washed with 0.1% PBST 3 times. 100 uL of 3% BSA (0.6 g BSA+20 mL PBS) was added to each well, and the mixture was blocked at 37° C. for 30 min. After the blocking was completed, the liquid was removed and a primary antibody (SUMO-2/3 (181H8) Rabbit mAb, 1:400 dilution) was prepared with […]. 30 μL of the diluted primary antibody was added to each well, and the mixture was incubated at 4° C. overnight. The cells were washed 3 times with 200 μL of 0.1% o PBST. A FITC secondary antibody (Fluorescein (FITC)-conjugated Affinipure Goat Anti-Rabbit IgG (H+L), 1:300 dilution) was further prepared with 1% o BSA, and 40 μL of the diluted secondary antibody was added to each well. The mixture was incubated at room temperature in the dark for 2 h, and then the cells were washed 4 times with 0.1% PBST. The fluorescence signal of the sample was detected and compared to the DMSO group, and the inhibition rate and IC50 were calculated.

Sequence of SAE (Q9UBT2 whole entry): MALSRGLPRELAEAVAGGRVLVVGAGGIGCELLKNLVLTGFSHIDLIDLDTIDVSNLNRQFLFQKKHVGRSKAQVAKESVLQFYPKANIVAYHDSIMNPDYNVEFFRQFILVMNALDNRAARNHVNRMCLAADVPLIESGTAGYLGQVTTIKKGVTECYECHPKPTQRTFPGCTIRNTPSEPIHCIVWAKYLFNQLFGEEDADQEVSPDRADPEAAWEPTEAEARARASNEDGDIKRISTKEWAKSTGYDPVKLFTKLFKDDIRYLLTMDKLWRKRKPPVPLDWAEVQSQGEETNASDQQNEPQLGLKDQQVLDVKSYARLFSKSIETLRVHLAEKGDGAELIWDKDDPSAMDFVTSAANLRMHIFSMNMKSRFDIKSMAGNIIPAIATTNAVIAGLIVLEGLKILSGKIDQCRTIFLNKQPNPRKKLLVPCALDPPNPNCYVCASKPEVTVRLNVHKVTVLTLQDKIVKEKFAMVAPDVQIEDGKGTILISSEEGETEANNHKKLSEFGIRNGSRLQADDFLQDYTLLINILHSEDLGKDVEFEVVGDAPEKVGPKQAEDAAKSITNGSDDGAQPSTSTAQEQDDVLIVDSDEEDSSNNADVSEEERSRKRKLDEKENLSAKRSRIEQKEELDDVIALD
Sequence of SAE (Q9UBE0 whole entry partner): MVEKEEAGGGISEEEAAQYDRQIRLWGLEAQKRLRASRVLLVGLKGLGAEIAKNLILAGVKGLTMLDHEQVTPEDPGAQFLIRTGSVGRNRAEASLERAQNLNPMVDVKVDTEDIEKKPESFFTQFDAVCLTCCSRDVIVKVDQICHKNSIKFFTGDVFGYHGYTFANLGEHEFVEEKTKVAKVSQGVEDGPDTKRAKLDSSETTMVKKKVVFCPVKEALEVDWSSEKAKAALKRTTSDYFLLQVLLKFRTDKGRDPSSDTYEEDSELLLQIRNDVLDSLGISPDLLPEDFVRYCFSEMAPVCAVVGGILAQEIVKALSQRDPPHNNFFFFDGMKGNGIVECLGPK

Row | SMILES | IC50 (class symbols) | IC50 (numeric values)
1 | NS(=O)(=O)OC[C@H]1C[C@@H](Nc2ncncc2C(=O)c2cc3c(s2)COCC32NCCc3c(F)cc(Cl)cc32)C[C@@H]1O (stereo partly drawn) [Compound 109] | 0.05 to 0.2 µM | –
2 | NS(=O)(=O)OC[C@H]1C[C@@H](Nc2ncncc2C(=O)c2cc3c(s2)COC[C@@]32NCCc3c(F)cc(Cl)cc32)C[C@@H]1O [Compound 110] | > 0.2 µM | –
3 | NS(=O)(=O)OC[C@H]1C[C@@H](Nc2ncncc2C(=O)c2cc3c(s2)COC[C@]32NCCc3c(F)cc(Cl)cc32)C[C@@H]1O [Compound 111] | 0.05 to 0.2 µM | –
4 | CN1Cc2sc(C(=O)c3cncnc3N[C@@H]3C[C@H](COS(N)(=O)=O)[C@@H](O)C3)cc2C2(C1)NCCc1ccc(Cl)cc12 (stereo partly drawn) [Compound 112] | ≤ 0.05 µM | –
5 | CN1Cc2sc(C(=O)c3cncnc3N[C@@H]3C[C@H](COS(N)(=O)=O)[C@@H](O)C3)cc2[C@@]2(C1)NCCc1ccc(Cl)cc12 [Compound 113] | – | > 1 µM
6 | CN1Cc2sc(C(=O)c3cncnc3N[C@@H]3C[C@H](COS(N)(=O)=O)[C@@H](O)C3)cc2[C@]2(C1)NCCc1ccc(Cl)cc12 [Compound 114] | – | 0.0228 µM
7 | NS(=O)(=O)OC[C@H]1C[C@@H](Nc2ncncc2C(=O)c2cc3c(s2)CN(C2CC2)CC32NCCc3ccc(Cl)cc32)C[C@@H]1O (stereo partly drawn) [Compound 115] | ≤ 0.05 µM | –
8 | NS(=O)(=O)OC[C@H]1C[C@@H](Nc2ncncc2C(=O)c2cc3c(s2)CN(C2CC2)C[C@@]32NCCc3ccc(Cl)cc32)C[C@@H]1O [Compound 116] | – | > 1 µM
9 | NS(=O)(=O)OC[C@H]1C[C@@H](Nc2ncncc2C(=O)c2cc3c(s2)CN(C2CC2)C[C@]32NCCc3ccc(Cl)cc32)C[C@@H]1O [Compound 117] | – | 0.0191 µM
10 | NS(=O)(=O)OC[C@H]1C[C@@H](Nc2ncncc2C(=O)c2cc3c(s2)CNCC32NCCc3ccc(Cl)cc32)C[C@@H]1O (stereo partly drawn) [Compound 118] | 0.05 to 0.2 µM | –
11 | NS(=O)(=O)OC[C@H]1C[C@@H](Nc2ncncc2C(=O)c2cc3c(s2)CNC[C@@]32NCCc3ccc(Cl)cc32)C[C@@H]1O [Compound 119] | > 0.2 µM | –
12 | NS(=O)(=O)OC[C@H]1C[C@@H](Nc2ncncc2C(=O)c2cc3c(s2)CNC[C@]32NCCc3ccc(Cl)cc32)C[C@@H]1O [Compound 120] | 0.05 to 0.2 µM | –
13 | NS(=O)(=O)OC[C@H]1C[C@@H](Nc2ncncc2C(=O)c2nc3c(s2)CCCC32NCCc3ccc(Cl)cc32)C[C@@H]1O (stereo partly drawn) [Compound 121] | > 0.2 µM | –
14 | NS(=O)(=O)OC[C@H]1C[C@@H](Nc2ncncc2C(=O)c2nc3c(s2)CCC[C@@]32NCCc3ccc(Cl)cc32)C[C@@H]1O [Compound 122] | > 0.2 µM | –
15 | NS(=O)(=O)OC[C@H]1C[C@@H](Nc2ncncc2C(=O)c2nc3c(s2)CCC[C@]32NCCc3ccc(Cl)cc32)C[C@@H]1O [Compound 123] | 0.05 to 0.2 µM | –
16 | NS(=O)(=O)OC[C@H]1C[C@@H](Nc2ncncc2C(=O)c2nc3c(s2)COCC32NCCc3ccc(Cl)cc32)C[C@@H]1O (stereo partly drawn) [Compound 124] | > 0.2 µM | –
17 | NS(=O)(=O)OC[C@H]1C[C@@H](Nc2ncncc2C(=O)c2nc3c(s2)COC[C@@]32NCCc3ccc(Cl)cc32)C[C@@H]1O [Compound 125] | > 0.2 µM | –
18 | NS(=O)(=O)OC[C@H]1C[C@@H](Nc2ncncc2C(=O)c2nc3c(s2)CCC[C@]32NCCc3ccc(Cl)cc32)C[C@@H]1O [Compound 126] | > 0.2 µM | –
19 | NS(=O)(=O)OC[C@H]1C[C@@H](Nc2ncncc2C(=O)c2nc3c(s2)CSCC32NCCc3ccc(Cl)cc32)C[C@@H]1O (stereo partly drawn) [Compound 127] | > 0.2 µM | –
20 | NS(=O)(=O)OC[C@H]1C[C@@H](Nc2ncncc2C(=O)c2nc3c(s2)CSC[C@@]32NCCc3ccc(Cl)cc32)C[C@@H]1O [Compound 128] | > 0.2 µM | –
21 | NS(=O)(=O)OC[C@H]1C[C@@H](Nc2ncncc2C(=O)c2nc3c(s2)CSC[C@]32NCCc3ccc(Cl)cc32)C[C@@H]1O [Compound 129] | 0.05 to 0.2 µM | –
22 | CN1CCc2ccc(Cl)cc2C12CCCc1sc(C(=O)c3cncnc3N[C@@H]3C[C@H](COS(N)(=O)=O)[C@@H](O)C3)cc12 (stereo partly drawn) [Compound 130] | 0.05 to 0.2 µM | –
23 | CN1CCc2ccc(Cl)cc2[C@]12CCCc1sc(C(=O)c3cncnc3N[C@@H]3C[C@H](COS(N)(=O)=O)[C@@H](O)C3)cc12 [Compound 131] | > 0.2 µM | –
24 | CN1CCc2ccc(Cl)cc2[C@@]12CCCc1sc(C(=O)c3cncnc3N[C@@H]3C[C@H](COS(N)(=O)=O)[C@@H](O)C3)cc12 [Compound 132] | 0.05 to 0.2 µM | –
25 | NS(=O)(=O)OC[C@H]1C[C@@H](Nc2ncncc2C(=O)c2cc3c(s2)CCCC32NCCc3cnc(Cl)cc32)C[C@@H]1O (stereo partly drawn) [Compound 133] | 0.05 to 0.2 µM | –
26 | NS(=O)(=O)OC[C@H]1C[C@@H](Nc2ncncc2C(=O)c2cc3c(s2)CCC[C@@]32NCCc3cnc(Cl)cc32)C[C@@H]1O [Compound 134] | > 0.2 µM | –

Row | SMILES | IC50 (class symbols) | IC50 (numeric values)
27 | NS(=O)(=O)OC[C@H]1C[C@@H](Nc2ncncc2C(=O)c2cc3c(s2)CCC[C@]32NCCc3cnc(Cl)cc32)C[C@@H]1O [Compound 135] | ≤ 0.05 µM | –
28 | NS(=O)(=O)CC[C@H]1C[C@@H](Nc2ncncc2C(=O)c2cc3c(s2)CCCC32NCCc3ccc(Cl)nc32)C[C@@H]1O (stereo partly drawn) [Compound 136] | ≤ 0.05 µM | –
29 | NS(=O)(=O)OC[C@H]1C[C@@H](Nc2ncncc2C(=O)c2cc3c(s2)CCC[C@]32NCCc3ccc(Cl)nc32)C[C@@H]1O [Compound 138] | ≤ 0.05 µM | –
30 | NS(=O)(=O)OC[C@H]1C[C@@H](Nc2ncncc2C(=O)c2cc3c(s2)CCCC32NCCc3ncc(Cl)cc32)C[C@@H]1O (stereo partly drawn) [Compound 139] | 0.05 to 0.2 µM | –
31 | NS(=O)(=O)OC[C@H]1C[C@@H](Nc2ncncc2C(=O)c2cc3c(s2)CCC[C@@]32NCCc3ncc(Cl)cc32)C[C@@H]1O [Compound 140] | > 0.2 µM | –
32 | NS(=O)(=O)OC[C@H]1C[C@@H](Nc2ncncc2C(=O)c2cc3c(s2)CCC[C@]32NCCc3ncc(Cl)cc32)C[C@@H]1O [Compound 141] | ≤ 0.05 µM | –
33 | NS(=O)(=O)OC[C@H]1C[C@@H](Nc2ncncc2C(=O)c2cc3c(s2)CSCC32NCCc3cnc(Cl)cc32)C[C@@H]1O (stereo partly drawn) [Compound 142] | 0.05 to 0.2 µM | –
34 | NS(=O)(=O)OC[C@H]1C[C@@H](Nc2ncncc2C(=O)c2cc3c(s2)CSC[C@@]32NCCc3cnc(Cl)cc32)C[C@@H]1O [Compound 143] | > 0.2 µM | –
35 | NS(=O)(=O)OC[C@H]1C[C@@H](Nc2ncncc2C(=O)c2cc3c(s2)CSC[C@]32NCCc3cnc(Cl)cc32)C[C@@H]1O [Compound 144] | ≤ 0.05 µM | –
36 | NS(=O)(=O)OC[C@H]1C[C@@H](Nc2ncncc2C(=O)c2cc3c(s2)CSCC32NCCc3ccc(Cl)nc32)C[C@@H]1O (stereo partly drawn) [Compound 145] | 0.05 to 0.2 µM | –
37 | NS(=O)(=O)OC[C@H]1C[C@@H](Nc2ncncc2C(=O)c2cc3c(s2)CSC[C@@]32NCCc3ccc(Cl)nc32)C[C@@H]1O [Compound 146] | > 0.2 µM | –
38 | NS(=O)(=O)OC[C@H]1C[C@@H](Nc2ncncc2C(=O)c2cc3c(s2)CSC[C@]32NCCc3ccc(Cl)nc32)C[C@@H]1O [Compound 147] | ≤ 0.05 µM | –
39 | NS(=O)(=O)OC[C@H]1C[C@@H](Nc2ncncc2C(=O)c2cc3c(s2)CSCC32NCCc3ncc(Cl)cc32)C[C@@H]1O (stereo partly drawn) [Compound 148] | 0.05 to 0.2 µM | –
40 | NS(=O)(=O)OC[C@H]1C[C@@H](Nc2ncncc2C(=O)c2cc3c(s2)CSC[C@@]32NCCc3ncc(Cl)cc32)C[C@@H]1O [Compound 149] | > 0.2 µM | –
41 | NS(=O)(=O)CC[C@H]1C[C@@H](Nc2ncncc2C(=O)c2cc3c(s2)CSC[C@]32NCCc3ncc(Cl)cc32)C[C@@H]1O [Compound 150] | ≤ 0.05 µM | –
42 | NS(=O)(=O)OC[C@H]1C[C@@H](Nc2ncncc2C(=O)c2cc3c(s2)CC2(CC2)CC32NCCc3ccc(Cl)cc32)C[C@@H]1O (stereo partly drawn) [Compound 151] | ≤ 0.05 µM | –
43 | NS(=O)(=O)OC[C@H]1C[C@@H](Nc2ncncc2C(=O)c2cc3c(s2)CCC[C@@]32NCC3(CC3)c3ccc(Cl)cc32)C[C@@H]1O [Compound 152] | > 0.2 µM | –
44 | NS(=O)(=O)OC[C@H]1C[C@@H](Nc2ncncc2C(=O)c2cc3c(s2)CCC[C@]32NCC3(CC3)c3ccc(Cl)cc32)C[C@@H]1O [Compound 153] | ≤ 0.05 µM | –
45 | NS(=O)(=O)OC[C@H]1C[C@@H](Nc2ncncc2C(=O)c2cc3c(s2)C(F)=CC32NCCc3ccc(Cl)cc32)C[C@@H]1O (stereo partly drawn) [Compound 154] | ≤ 0.05 µM | –
46 | NS(=O)(=O)OC[C@H]1C[C@@H](Nc2ncncc2C(=O)c2cc3c(s2)C(F)=C[C@@]32NCCc3ccc(Cl)cc32)C[C@@H]1O [Compound 155] | > 0.2 µM | –
47 | NS(=O)(=O)OC[C@H]1C[C@@H](Nc2ncncc2C(=O)c2cc3c(s2)C(F)=C[C@]32NCCc3ccc(Cl)cc32)C[C@@H]1O [Compound 156] | ≤ 0.05 µM | –
48 | CC1=CC2(NCCc3ccc(Cl)cc32)c2cc(C(=O)c3cncnc3N[C@@H]3C[C@H](COS(N)(=O)=O)[C@@H](O)C3)sc21 (stereo partly drawn) [Compound 157] | 0.05 to 0.2 µM | –
49 | CC1=C[C@@]2(NCCc3ccc(Cl)cc32)c2cc(C(=O)c3cncnc3N[C@@H]3C[C@H](COS(N)(=O)=O)[C@@H](O)C3)sc21 [Compound 158] | > 0.2 µM | –
50 | CC1=C[C@]2(NCCc3ccc(Cl)cc32)c2cc(C(=O)c3cncnc3N[C@@H]3C[C@H](COS(N)(=O)=O)[C@@H](O)C3)sc21 [Compound 159] | ≤ 0.05 µM | –
51 | NS(=O)(=O)OC[C@H]1C[C@@H](Nc2ncncc2C(=O)c2cc3c(s2)C(F)(F)CC32NCCc3ccc(Cl)cc32)C[C@@H]1O (stereo partly drawn) [Compound 160] | 0.05 to 0.2 µM | –

From patent US20260035382A1, “COMPOUNDS AS SUMO ACTIVATING ENZYME INHIBITORS” (WIGEN BIOMEDICINE TECHNOLOGY (SHANGHAI) CO., LTD., priority 2022, published 2026)
